Laboratory results published in the NIST ThermoML archive (doi:10.1021/je7005055).

Tests used:
[1] = 298.15 K; 101.33 kPa; Liquid
[2] = xn = mol fraction of the nth substance listed; settings: 298.15 K, 101 kPa, Liquid

CN1CCOCC1 [N-methylmorpholine]
Settings | mass density [kg/m3]
[1] | 914.06

CCCCCO [pentan-1-ol]
Settings | mass density [kg/m3]
[1] | 810.83

CN1CCOCC1 [N-methylmorpholine] + CCCCO
[2]
Settings | mass density [kg/m3]
x1 = 0.0455 | 811.49
x1 = 0.1089 | 818.95
x1 = 0.1675 | 825.55
x1 = 0.2399 | 833.8
x1 = 0.2811 | 838.33
x1 = 0.3494 | 845.7
x1 = 0.3985 | 850.99
x1 = 0.4533 | 856.71
x1 = 0.5285 | 864.54
x1 = 0.6444 | 876.67
x1 = 0.7198 | 885.45
x1 = 0.7865 | 891.47
x1 = 0.8237 | 895.31
x1 = 0.8843 | 901.73
x1 = 0.9411 | 907.87
x1 = 0.9801 | 912

CN1CCOCC1 [N-methylmorpholine] + CCCCCCCCO
[2]
Settings | mass density [kg/m3]
x1 = 0.0461 | 823.88
x1 = 0.1101 | 827.55
x1 = 0.1862 | 832.09
x1 = 0.2381 | 835.33
x1 = 0.2848 | 838.58
x1 = 0.3484 | 843.06
x1 = 0.4029 | 846.99
x1 = 0.4899 | 853.86
x1 = 0.5121 | 855.92
x1 = 0.6012 | 863.81
x1 = 0.6547 | 869.5
x1 = 0.7213 | 875.97
x1 = 0.7831 | 883.26
x1 = 0.8353 | 889.72
x1 = 0.8958 | 897.82
x1 = 0.9541 | 905.92
x1 = 0.9792 | 909.72

CCCCO [butan-1-ol]
Settings | mass density [kg/m3]
[1] | 805.92

CCCO [propan-1-ol]
Settings | mass density [kg/m3]
[1] | 799.52

CCO [ethanol]
Settings | mass density [kg/m3]
[1] | 784.94

CN1CCOCC1 [N-methylmorpholine] + CCCO
[2]
Settings | mass density [kg/m3]
x1 = 0.0237 | 803.87
x1 = 0.1003 | 816.55
x1 = 0.1657 | 826.67
x1 = 0.2336 | 836.52
x1 = 0.2812 | 843.01
x1 = 0.3458 | 851.12
x1 = 0.3988 | 857.14
x1 = 0.4476 | 861.99
x1 = 0.5784 | 874.68
x1 = 0.6347 | 879.93
x1 = 0.7195 | 888.06
x1 = 0.7684 | 892.76
x1 = 0.8327 | 898.56
x1 = 0.8674 | 901.93
x1 = 0.9443 | 908.83
x1 = 0.9878 | 912.75

CN1CCOCC1 [N-methylmorpholine] + CCCCCCO
[2]
Settings | mass density [kg/m3]
x1 = 0.0459 | 818.34
x1 = 0.1098 | 823.37
x1 = 0.1852 | 829.49
x1 = 0.2377 | 833.69
x1 = 0.2855 | 837.76
x1 = 0.3495 | 843.34
x1 = 0.4034 | 848.09
x1 = 0.4887 | 855.97
x1 = 0.5129 | 858.26
x1 = 0.5998 | 866.75
x1 = 0.6583 | 872.76
x1 = 0.7174 | 879.14
x1 = 0.7844 | 886.51
x1 = 0.8341 | 892.31
x1 = 0.8964 | 899.75
x1 = 0.9538 | 907.13
x1 = 0.9784 | 910.69

CN1CCOCC1 [N-methylmorpholine] + CCO
[2]
Settings | mass density [kg/m3]
x1 = 0.0511 | 797.55
x1 = 0.1166 | 812.41
x1 = 0.1795 | 825.38
x1 = 0.2438 | 837.23
x1 = 0.2795 | 843.43
x1 = 0.3532 | 854.69
x1 = 0.4021 | 861.24
x1 = 0.4573 | 867.56
x1 = 0.4982 | 871.73
x1 = 0.5342 | 875.35
x1 = 0.5832 | 879.41
x1 = 0.6432 | 884.36
x1 = 0.7234 | 890.96
x1 = 0.7786 | 895.53
x1 = 0.8216 | 899.13
x1 = 0.8794 | 904.05
x1 = 0.9432 | 909.42
x1 = 0.9832 | 912.63

CN1CCOCC1 [N-methylmorpholine] + CCCCCO
[2]
Settings | mass density [kg/m3]
x1 = 0.0487 | 813.72
x1 = 0.1129 | 820.02
x1 = 0.1766 | 826.08
x1 = 0.2412 | 832.41
x1 = 0.2801 | 836.23
x1 = 0.3998 | 847.87
x1 = 0.4612 | 854.03
x1 = 0.5826 | 866.38
x1 = 0.6444 | 872.93
x1 = 0.7267 | 881.91
x1 = 0.7801 | 887.89
x1 = 0.8226 | 892.69
x1 = 0.8811 | 899.57
x1 = 0.9428 | 907.1
x1 = 0.9854 | 912.11

CCCCCCCCO [octan-1-ol]
Settings | mass density [kg/m3]
[1] | 821.65

CCCCCCO [hexan-1-ol]
Settings | mass density [kg/m3]
[1] | 814.95
